Patent publication US20180185391A1, “Drug Treatment Of Psoriasis And Of Other Skin Disorders Associated With Inhibition Of Differentiation Of Epidermal Cells” (priority 2016, published 2018)
“Also recorded” adds a separate entry of the source.

Tests used:
[1] = tested on: psoriatic lesions; assay: Clinical observation of psoriatic plaques under topical treatment; assay type: in vivo, human
Description: The base cream used is made predominantly of heavy paraffin oil (10% w/w), vaseline (10% w/w), stearyl alcohol (8% w/w), polyoxylsteareth-40 (3% w/w) and water (68% w/w) but another suitably formulated base cream is also possible. […] The dosing and the application schedules followed for the lesion shown in FIG. 1A (psoriatic plaque on the dorsum of hand) are as follows: about 30 μl cream applied directly onto the lesion with the aid of a steel spatula every four hours for 24 hours. The cream-applied area is protected from accidental smearing and loss of the cream by covering with an aluminum applicator (FIG. 1 B). The dosing and the application schedules followed for the lesion shown in FIG. 1 D (psoriatic plaque at the scapular region) are as follows: about 30 μl cream applied directly onto the lesion every four hours for 24 hours. The cream-applied area is similarly covered against the smearing and loss of cream. Other treated psoriatic patients and lesions received from about 30 to 35 μl cream to each lesion at intervals of every 3 to 5 hours, as suitable and convenient. Lesions were similarly covered against the smearing and loss of cream. […] The corticosteroid used for treatment of the lesion shown in FIG. 4E was clobetasol 17-propionate in a final concentration of about 1.1 mM in base cream.

[2] = tested on: palmoplantar pustulosis lesions; conditions: 0.55 mM alone for 4 days; cited from earlier work
[3] = tested on: cytokeratin 15; assay: Immunohistochemical staining with C8/144B antibody (cytokeratin 15)
Excerpt: All antibodies and reagents for these immunohistochemical investigations were purchased from DAKO (Glostrup, Denmark); human Ki-67 antigen was detected by the monoclonal antibody M7187, human epithelial antigen was detected by the monoclonal antibody Ber-EP4, human CD4 antigen was detected by the monoclonal antibody M0716, human CD8 antigen was detected by the monoclonal antibody C8/144B. Besides the CD8 antigen, the monoclonal antibody C8/144B is known to recognize and bind to the cytokeratin 15 expressed by the hair stem cells (Kanitakis J. et al. (1999) Eur. J. Dermatol. 9:363-365). A DAKO “universal visualization kit” (LSAB2) employing biotinylated secondary antibody and peroxidase-conjugated streptavidin (pre-diluted to match the dilutions of DAKO-supplied primary antibodies) was used for the visualization reactions. All reaction conditions were as recommended by the manufacturer.

[4] = tested on: psoriatic lesional skin; assay: Histopathological examination (H&E) of treated psoriatic lesional skin sections; assay type: in vivo, human; conditions: 24th hour of treatment
Description: FIG. 1A and FIG. 1C show a psoriatic plaque before and after exposure to cyclopamine and the rapid clinical regression. The cyclopamine cream was applied to the proximal half of this lesion present on the dorsum of right hand of a patient having plaque-type psoriasis. At intervals of 4 hours, approximately 30 μl cream was applied directly onto the lesion and the cream-applied region was covered against accidental smearing and loss of the cream (FIG. 1 B).
FIG. 2A to FIG. 2W show histopathological and immunohistochemical examination findings of the tissue sections from the non-lesional skin, cyclopamine-treated lesional skin and non-treated lesional skin. Compared to the non-lesional skin (FIG. 2A), the non-treated lesional skin (FIG. 2B) is seen to display the typical histopathological signs of a psoriatic skin lesion mentioned above in the “Background of Invention”. […] These histopathological signs of regression to normalcy, exemplified in the figures FIG. 2C and FIG. 2D (examples from other cyclopamine-treated lesions and patients are given later) include the following: […]

[5] = tested on: human epithelial antigen; assay: Immunohistochemical staining for epithelial antigen with Ber-EP4 antibody; assay type: in vivo
Excerpt: All reaction conditions were as recommended by the manufacturer.
The monoclonal antibody Ber-EP4 is known to label the basal layer cells in normal epidermis. The outer root sheath of hair follicles, where the hair stem cells are thought to reside, are also known to be labeled with Ber-EP4.

[6] = tested on: healthy skin; assay: Follow-up of healthy and non-lesional skin for adverse effects of topical cyclopamine; conditions: for adverse effect on healthy / non-lesional skin: topical application under the described concentration and dosing conditions
Excerpt: Genetic heterogeneity and different ages of the psoriatic patients as well as the localizational heterogeneity of psoriatic lesions throughout body invite evaluation of the use of cyclopamine on different patients and lesions.
As there is evidence for the involvement of the hedgehog/smoothened signal transduction pathway in the maintenance of epidermal stem cells, untoward side effects of cyclopamine on skin are, a priori, possible and must be excluded.

[7] = psoriatic lesional skin, 24th hour of treatment

Row | SMILES | regression or clearance of psoriatic lesions ([1]; about […], alone, four days of treatment) | effect on palmoplantar pustulosis lesions [2] | erythema of the psoriatic plaque ([1]; 12th hour of treatment, scapular plaque, cyclopamine applied for a day then discontinued) | effectiveness on psoriatic lesions (regression and clearance) ([1]; every lesion treated, unrelated patients 29 to 57 years, extremities to trunk) | state of the psoriatic plaque ([1]; fourth day of follow-up, scapular plaque, 1 day of treatment, still visible) | lesions subjected to the single-day treatment that failed to clear completely ([1]; human, in vivo) | day on which the lesion cleared ([1]; scapular plaque, cyclopamine applied for a day then discontinued) [days] | cytokeratin 15 in basal cells of non-lesional epidermis ([3]; non-lesional epidermis exposed to cyclopamine) | C8/144B (cytokeratin 15) labeling of epidermal basal layer cells [3, 7] | granular layer of epidermis [4] | histopathological signs of the psoriatic lesion [4] | Ber-EP4 labeling of basal cells of non-lesional skin ([5]; non-lesional skin after exposure to cyclopamine) | Ber-EP4 labeling of epidermal basal layer cells [5, 7] | appearance of skin sites of cyclopamine application ([6]; follow-up over a period of more than 31 months) | adverse effect on healthy / non-lesional skin [6] | adverse effect on healthy / non-lesional skin ([6]; listed as Cyclopamine)
1 | CCC(=O)O[C@]1(C(=O)CCl)[C@@H](C)C[C@H]2[C@@H]3CCC4=CC(=O)C=C[C@]4(C)[C@@]3(F)[C@@H](O)C[C@@]21C [clobetasol 17-propionate, reference compound] | unable to cause a significant regression or clearance | not to produce a perceptible effect |  |  |  |  |  |  |  |  |  |  |  |  |  | 
2 | CC1=C2C[C@H]3[C@@H](CC=C4C[C@@H](O)CC[C@@]43C)[C@@H]2CC[C@]12O[C@@H]1C[C@H](C)CN[C@H]1[C@H]2C [cyclopamine] |  |  | decreased erythema | highly effective | marked regression | about 29% | > 8 | continued to be positive for the cytokeratin 15 | normalized and became labeled by the C8/144B antibody; also recorded: reversion to normalcy | Re-appearance of the granular layer | dramatic improvement and regression to normalcy; also recorded: regression of the psoriatic plaque | remained Ber-EP4 positive | reverted to normalcy; also recorded: reversion to normalcy; also recorded: Epidermal basal layer cells are seen to display the epithelial antigen | healthy-looking normal skin and hair | no adverse effect has been detected | did not adversely affect the non-lesional skin; also recorded: no detectable adverse effect
